From PMC2917201 (Molecular cell, 2010)

Target: T1, MuSK(cyto) (Rattus norvegicus, UniProt Q62838)
T1 sequence (Q62838 529-868): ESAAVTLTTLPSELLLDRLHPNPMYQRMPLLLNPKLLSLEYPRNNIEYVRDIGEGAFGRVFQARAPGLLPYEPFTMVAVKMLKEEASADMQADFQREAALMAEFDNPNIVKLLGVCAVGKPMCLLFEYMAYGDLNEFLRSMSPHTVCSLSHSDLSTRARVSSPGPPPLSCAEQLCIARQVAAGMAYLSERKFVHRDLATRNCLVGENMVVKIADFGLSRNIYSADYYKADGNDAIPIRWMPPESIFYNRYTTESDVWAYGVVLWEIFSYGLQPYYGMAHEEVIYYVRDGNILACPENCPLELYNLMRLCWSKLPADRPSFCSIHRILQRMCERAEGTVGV
Assay: autophosphorylation, anti-pTyr754 immunoblot
Format: biochemical
Conditions: 5 mM ATP, 50 mM MgCl2, 25 mM Tris-HCl pH 7.5, 0.5 mM sodium vanadate, 10 mM TCEP, room temperature; MuSK alone, no Dok7

Nc1ncnc2c1ncn2[C@@H]1O[C@H](COP(=O)(O)OP(=O)(O)OP(=O)(O)O)[C@@H](O)[C@H]1O [ATP]
autophosphorylation, anti-pTyr754 immunoblot: With MuSK alone, incubation with Mg-ATP results in a relatively slow rate of autophosphorylation
